Data set [1] deals with T1, CYP3A4 (Homo sapiens, UniProt P08684).
T1 construct: purchased Cypex (Dundee, UK); host or cells: bactosomes (bacterial membranes)
As to the kind of experiment: Reaction phenotyping with recombinant CYP3A4. Format: in vitro ADME. The following applies: 1 µM, 50 pmol/mL recombinant CYP3A4, NADPH, 60 min, vs control. How it is done:
(§1) Reactions were conducted in triplicate using 0.1 M PPB (pH 7.4) in eight-well tube strips in an 8 × 12 rack. […] The mixture was pre-incubated at 37°C with shaking at approximately 100 rpm for 5 min. Reactions were initiated by the addition of the NADPH-regenerating system and quenched with 200 µL ice-cold acetonitrile containing 50 nM CBZ. The samples were centrifuged at 1,000 × g and 4°C for 20 min, and the supernatants were subjected to LC-QTOF HRMS. […] The reaction was incubated, initiated, terminated, centrifuged then analyzed using the same method described above.
(§2) Reaction phenotyping is the identification of isoforms involved in drug metabolism and is important for the decipherment of drug biotransformation pathways and understanding of possible drug-drug interactions. M6, M7, and M8 were also detected in recombinant CYP incubations.

Data set [2] deals with CYP3A4/3A5. As to the kind of experiment: Metabolic stability in Silensome CYP3A4 (CYP3A4/3A5 contribution). The class given is in vitro ADME, human. Conditions: human. As to the method:
(§3) Metabolic stability of GRL 0617 and formation of M1 and M3 were evaluated using Silensome control, Silensome CYP2D6 and Silensome CYP3A4 incubated with 1 or 10 µM GRL 0617 in the presence of NADPH. Other metabolites were detected less than 1% of parent. […] CYP2D6 played an exclusive role in the formation of M2, but the reactions were not saturated in the concentration range used in this study and thus, the calculated Kcat, and Km were out of the experiment condition.
(§4) In addition, the contribution of specific isoform using Silensomes were evaluated, and calculated parameters were shown in Supplemental Figure S4 and Table 4. […] The contribution of specific CYP 3A4 or CYP2D6 was calculated to be 79.6% or 21.8%, respectively, using equation as equation below. Calculated % CYP isoform contribution = CLintcontrol−ClintINH ⁄ CLintcontrol ([Bohnert et al., 2016]).
(§5) CYP3A4/5 metabolizes various chemicals composed of large, lipophilic molecules with diverse structures, and >50% of all prescribed drugs undergo CYP3A4 metabolism ([Zanger and Schwab, 2013]). CYP3A4-related drug interaction studies are critical for the prediction of drug–drug interactions in the clinic ([Prueksaritanont et al., 2013]). […] Thus, Silensome 3A4 represented contribution of both CYP3A4 and CYP3A5, compared with control Silensome. CYP3A5 expression in the liver differs between Africans/African Americans and Caucasians. […] CYP2D6 is a highly polymorphic gene involved in drug metabolism ([Ingelman-Sundberg et al., 2007]). […] Indeed, CYP2D6 metabolized the naphthalene side ring through hydroxylation, which is not linked to M1–M3 dehydration.
(§6) incubated in Silensome control, Silensome CYP2D6, and Silensome CYP3A4 with NADPH for 0, 10,
(§7) 15, 30, 45, 60, or 120 min. The remaining percentages of GRL 0617 are expressed as mean ± SD (n=3).
(§8) (1 picture or pasted object on this page, not shown here)

The test system of data set [3] is Silensome CYP3A4/3A5. Described as above. The class given is in vitro ADME, human. The following applies: (CLint control − CLint INH)/CLint control. How it is done: as §3, §4, §5, §6, §7, §8
Data set [4] concerns the target CYP2D6 (Homo sapiens, UniProt P10635). The following applies: pooled HLMs, substrate cocktail. How it is done:
(§9) The drug–drug interaction potential was evaluated using a CYP cocktail assay that involved microsomal incubation and NADPH, as described elsewhere ([Lee et al., 2012]). […] The first reactions were initiated by NADPH addition, and each mixture was incubated in a shaking water bath at 37°C for 30 min. The final incubation was performed for 10 min with a total volume of 200 µL by adding substrates (tolbutamide (set B) as a CYP2C9 selective substrate, midazolam (set A) and testosterone (set B) as CYP3A4 selective substrates) and NADPH. The reaction was stopped and quenched by adding 200 µL of ice-cold acetonitrile containing 50 nM CBZ as internal standard, then centrifuged at 3,000 x g for 20 min. The supernatants were injected in LC-QTOF system. IC50 shift values were calculated as the ratio of the IC50 value obtained after pre-incubation without NADPH divided by the IC50 value obtained after 30 min incubation with NADPH.
(§10) The LC-QTOF system consisted of an Exion AD LC device (AB Sciex, Framingham, MA, United States) and a TripleTOF 6,600 + system (AB Sciex) equipped with an IonDrive Turbo V source operated in positive TOF information-dependent acquisition (IDA) MS2 scan mode. The TOF scan dwell time was 50 ms, and the 20 × IDA MS2 scan time was acquired with a 30-ms dwell time. […]

In data set [5] the test system is other CYP isoforms (CYP1A2, 2A6, 2B6, 2C8, 2C9, 2E1). As to the kind of experiment: Reaction phenotyping with other recombinant CYP isoforms. Format: in vitro ADME, human. The following applies: 1 µM, 50 pmol/mL of each other recombinant CYP isoform, NADPH, 60 min. As to the method:
as §1, §2

The subject of data set [6] is Silensome CYP2D6. As to the kind of experiment: Metabolic stability in Silensome CYP2D6 (CYP2D6 contribution). Format: in vitro ADME, human. Conditions: (CLint control − CLint INH)/CLint control. How it is done:
as §3, §4, §6, §7, §8

Data set [7] deals with CYP2D6. The description is as above. Format: in vitro ADME, human. The following applies: human. How it is done: as §3, §4, §6, §7, §8
The target of data set [8] is CYP2E1 (Homo sapiens, UniProt P05181). As to the kind of experiment: CYP cocktail inhibition assay in pooled HLMs, CYP2E1. Conditions: substrate cocktail. How it is done:
as §9, §10

T1 sequence (P08684 whole entry): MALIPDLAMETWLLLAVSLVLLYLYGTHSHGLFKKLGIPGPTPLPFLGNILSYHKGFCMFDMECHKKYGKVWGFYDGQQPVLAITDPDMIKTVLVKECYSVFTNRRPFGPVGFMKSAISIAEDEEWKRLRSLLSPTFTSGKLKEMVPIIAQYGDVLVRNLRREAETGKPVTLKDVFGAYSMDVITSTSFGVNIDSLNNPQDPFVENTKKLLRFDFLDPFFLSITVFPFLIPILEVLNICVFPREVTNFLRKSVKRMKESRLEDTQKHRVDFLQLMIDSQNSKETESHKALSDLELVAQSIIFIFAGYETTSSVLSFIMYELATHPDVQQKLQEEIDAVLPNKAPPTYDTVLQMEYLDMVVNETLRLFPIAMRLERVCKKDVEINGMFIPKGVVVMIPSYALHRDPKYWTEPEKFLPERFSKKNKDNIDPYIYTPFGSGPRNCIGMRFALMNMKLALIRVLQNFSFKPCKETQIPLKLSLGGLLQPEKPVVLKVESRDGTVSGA
Chain of CYP2E1 (P05181 whole entry): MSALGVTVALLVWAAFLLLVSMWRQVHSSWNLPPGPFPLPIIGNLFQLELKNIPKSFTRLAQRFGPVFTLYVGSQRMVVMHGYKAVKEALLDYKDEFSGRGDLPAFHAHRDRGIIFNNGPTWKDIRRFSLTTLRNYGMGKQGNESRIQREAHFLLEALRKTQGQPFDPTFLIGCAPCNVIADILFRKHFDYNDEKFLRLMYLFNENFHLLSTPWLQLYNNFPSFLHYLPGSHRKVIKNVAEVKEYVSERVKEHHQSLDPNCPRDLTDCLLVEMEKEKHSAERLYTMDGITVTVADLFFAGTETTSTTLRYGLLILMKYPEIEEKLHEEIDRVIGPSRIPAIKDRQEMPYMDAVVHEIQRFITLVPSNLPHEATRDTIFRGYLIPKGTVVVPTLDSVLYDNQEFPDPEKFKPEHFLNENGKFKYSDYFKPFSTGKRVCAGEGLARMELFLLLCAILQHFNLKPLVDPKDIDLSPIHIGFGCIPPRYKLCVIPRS
Chain of CYP2D6 (Homo sapiens, UniProt P10635) (P10635 whole entry): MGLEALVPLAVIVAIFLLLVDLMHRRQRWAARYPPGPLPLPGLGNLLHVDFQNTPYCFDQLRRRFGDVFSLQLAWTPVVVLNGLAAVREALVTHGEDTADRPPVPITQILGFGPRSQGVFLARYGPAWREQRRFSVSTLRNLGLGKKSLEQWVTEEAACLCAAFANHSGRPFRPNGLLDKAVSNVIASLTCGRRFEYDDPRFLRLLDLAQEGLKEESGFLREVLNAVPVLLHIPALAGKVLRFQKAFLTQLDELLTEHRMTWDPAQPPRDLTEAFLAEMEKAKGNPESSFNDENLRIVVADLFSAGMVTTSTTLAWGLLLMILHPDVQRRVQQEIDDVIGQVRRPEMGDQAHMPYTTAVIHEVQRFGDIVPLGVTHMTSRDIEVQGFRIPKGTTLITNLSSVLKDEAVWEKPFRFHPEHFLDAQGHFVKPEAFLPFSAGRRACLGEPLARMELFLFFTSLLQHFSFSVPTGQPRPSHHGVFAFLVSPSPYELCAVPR

On to `Cc1ccc(N)cc1C(=O)N[C@H](C)c1cccc2ccccc12` [GRL0617, 5-amino-2-methyl-N-[(1R)-1-(1-naphthalenyl)ethyl]benzamide], for which, in data set [1], the GRL0617 level remaining is given as 9.48% ± 1.26%. Further, the half-life (as a rule, the time needed for the level to fall by half in the phase considered) at 1 µM in data set [2] is 85.1 min; in data set [7] it was 22.3 min. Moreover, the microsomal CLint at 1 µM was 8.14 µL/min/mg in data set [2] (Silensome CYP3A4/3A5 with NADPH, read-out: Intrinsic clearance (in vitro) Clint) and 31.2 µL/min/mg in data set [7] (Silensome CYP2D6 with NADPH, read-out: Intrinsic clearance (in vitro) Clint). Moreover, the “Contribution of CYP3A4 (CYP3A4/3A5) to metabolism” value in data set [3] stood at 79.6%. The “Concentrations at which CYP2D6 was inhibited” value in data set [4] is not below 50 µM. The “Reduction of GRL0617 level” value in data set [5] is less than 10%. Moreover, the “Contribution of CYP2D6 to metabolism” value in data set [6] is listed as 21.8%. The “Concentrations at which CYP2E1 was inhibited” value in data set [8] is not below 50 µM.

The values are drawn from publication PMC9975351 (Frontiers in Pharmacology, 2023).
